This is an account of results in patent US8557848B2, “4,5-ring annulated indole derivatives for treating or preventing of HCV and related viral infections” (Merck Sharp & Dohme Corp., priority 2006, dated 2013).

For orientation: IC50 means the concentration needed to halve the response being measured. One may read the EC50 as the concentration giving half of the maximal effect.

Read-outs that look alike come from different tables or passages of the source. Some results are limits rather than exact numbers.

Experiment [1] concerns the target T1, HCV NS5B polymerase (NS5BΔCT21, from HCV-Con 1 isolate, genotype 1b) (Hepatitis C virus genotype 1b, UniProt Q9WMX2).
T1 construct: A soluble C-terminal 21-amino acid truncated NS5B enzyme form; polyhistidine (C); made in house; host or cells: Escherichia coli
In words: HCV NS5B Polymerase Inhibition Assay. In kind it is biochemical. The essentials: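 His-tagged NS5BΔCT21 (30 or 150 nM) with 0.03 μM DCoH75 RNA template, 0.25 mM GAU, 0.1 μM ATP/GTP/UTP, 0.026 μM CTP plus [^33P]-CTP, pH 7.3, 2% DMSO; 2 h at 22° C. Incorporated radioactivity counted after filter capture. IC50 from 10-point 2-fold dilutions (top 200 μM to 1 μM) fitted to Hill equation.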

Experiment [2] concerns HCV replicon cells (replicon RNA level). In words: Cell-Based HCV Replicon Assay. Particulars: Hepatitis C virus, 72 h; replicon RNA level by real time PCR (Taqman), cells harvested on day 3; read-out: EC50. The essentials:
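Replicon cells at 5000/well received 10 serial 2-fold compound dilutions in 0.5% DMSO, 5% FBS, harvested day 3. Replicon RNA quantified by multiplex Taqman RT-PCR on NS5B versus GAPDH; EC50 and EC90 taken at ΔCT = 1 and 3.2 above baseline from sigmoid fits.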

Where [3] appears, read: NS5B polymerase inhibition, [33P]-CTP incorporation, 22° C. for 2 hours, read-out: IC50.

For the compound `CS(=O)(=O)NC(=O)c1c(-c2ccc[nH]c2=O)c2c3occc3c(F)cc2n1Cc1ccnc(N)c1` [Compound 133], in experiment [1] (setting [3]), the IC50 is under 25 nM. For the same compound, the EC50 in experiment [2] is under 500 nM.

Compound `Cc1ccccc1Cn1c(C(=O)NS(C)(=O)=O)c(-c2ccc[nH]c2=O)c2c3ncsc3ccc21` [Compound 51] showed an IC50 in experiment [1] of under 25 nM. The EC50 in experiment [2] was under 500 nM.

`NC(=O)c1ccc(F)c(Cn2c(C(=O)O)c(-c3ccc[nH]c3=O)c3c4occc4c(F)cc32)c1` [Compound 107]: the IC50 in experiment [1] (setting [3]) was under 25 nM. Further, in experiment [2], the EC50 was under 500 nM.

As for `O=C(O)c1c(-c2ccccc2F)c2c3occc3c(F)cc2n1Cc1cc2ccccc2nc1Cl` [Compound 128], in experiment [1] (setting [3]), the IC50 was over 100 nM. The EC50 in experiment [2] is under 500 nM.

As for `CS(=O)(=O)NC(=O)c1c(-c2ccc[nH]c2=O)c2c3c(c(F)cc2n1Cc1csc(C(N)=O)c1)CCO3` [Compound 167], the IC50 in experiment [1] (setting [3]) is under 25 nM. Moreover, the EC50 in experiment [2] was under 500 nM.

For `O=C(O)c1c(-c2ccc[nH]c2=O)c2c3occc3c(F)cc2n1Cc1cc([N+](=O)[O-])ccc1F` [Compound 111], the IC50 in experiment [1] (setting [3]) was under 25 nM. For the same compound, in experiment [2], the EC50 was under 500 nM.

In the case of `NC(=O)c1cnc(F)c(Cn2c(C(=O)NS(=O)(=O)C3CC3)c(-c3ccc[nH]c3=O)c3c4c(c(F)cc32)CCO4)c1` [Compound 200], the IC50 in experiment [1] (setting [3]) was under 25 nM. Further, the EC50 in experiment [2] is under 500 nM.

With `Cc1coc2c1ccc1c2c(-c2ccc[nH]c2=O)c(C(=O)O)n1Cc1cc(F)ccc1F` [Compound 47], the IC50 in experiment [1] (setting [3]) is over 100 nM. Moreover, the EC50 in experiment [2] is over 1500 nM.

On to `Nc1noc2ccc(Cn3c(C(=O)O)c(-c4ccc[nH]c4=O)c4c5occc5c(F)cc43)cc12` [Compound 102], for which the IC50 in experiment [1] (setting [3]) is under 25 nM. Moreover, the EC50 in experiment [2] is under 500 nM.

On to `Cc1cc2ccc3c(c(-c4ccc[nH]c4=O)c(C(=O)NS(C)(=O)=O)n3Cc3ccccc3F)c2o1` [Compound 132], for which the IC50 in experiment [1] (setting [3]) lay within 25 to 100 nM. For the same compound, the EC50 in experiment [2] fell in the range of 500 to 1500 nM.

As to `NC(=O)c1cc(Cn2c(C(=O)NS(=O)(=O)C3CC3)c(-c3ccc[nH]c3=O)c3c4occc4c(F)cc32)cs1` [Compound 183], the IC50 in experiment [1] (setting [3]) was under 25 nM. Also, the EC50 in experiment [2] was under 500 nM.

On to `NC(=O)c1cnc(F)c(Cn2c(C(=O)O)c(-c3ccc[nH]c3=O)c3c4occc4c(F)cc32)c1` [Compound 109], for which the IC50 in experiment [1] (setting [3]) is under 25 nM. Also, the EC50 in experiment [2] was under 500 nM.

`Nc1cc(Cn2c(C(=O)O)c(-c3ccc[nH]c3=O)c3c4occc4c(F)cc32)ccn1` [Compound 77]: in experiment [1] (setting [3]), the IC50 was under 25 nM. In experiment [2], the EC50 was under 500 nM.

As for `CS(=O)(=O)NC(=O)c1c(-c2ccc[nH]c2=O)c2c3occc3c(F)cc2n1Cc1cc(Cl)nc2ccccc12` [Compound 193], the IC50 in experiment [1] (setting [3]) was under 25 nM. Moreover, in experiment [2], the EC50 is 500 to 1500 nM.

Take `O=C(NS(=O)(=O)C1CC1)c1c(-c2ccc[nH]c2=O)c2c3occc3c(F)cc2n1Cc1ccc2[nH]c(=O)[nH]c2c1` [Compound 190]: in experiment [1] (setting [3]), the half-maximal inhibitory concentration (IC50) was under 25 nM. Also, the EC50 in experiment [2] is under 500 nM.

On to `NC(=O)c1ccc(F)c(Cn2c(C(=O)NS(=O)(=O)C3CC3)c(-c3ccc[nH]c3=O)c3c4occc4c(F)cc32)c1` [Compound 195], for which the IC50 in experiment [1] (setting [3]) was under 25 nM. The EC50 in experiment [2] was under 500 nM.

For `O=C(NS(=O)(=O)C1CC1)c1c(-c2ccc[nH]c2=O)c2c3occc3ccc2n1Cc1cc2ccccc2nc1Cl` [Compound 201], in experiment [1] (setting [3]), the half-inhibitory concentration (IC50) is under 25 nM. Also, the EC50 in experiment [2] was under 500 nM.

In the case of `CS(=O)(=O)NC(=O)c1c(-c2ccc[nH]c2=O)c2c3c(ccc2n1Cc1ccccc1F)OC(F)(F)O3` [Compound 56], the half-inhibitory concentration (IC50) in experiment [1] is under 25 nM. Also, the EC50 in experiment [2] is over 1500 nM.

Consider `CS(=O)(=O)NC(=O)c1c(-c2ccc[nH]c2=O)c2c3occc3ccc2n1Cc1ccccc1F` [Compound 4], for which the IC50 in experiment [1] (setting [3]) was under 25 nM. In addition, the EC50 in experiment [2] is under 500 nM.

As to `O=C(NS(=O)(=O)C1CC1)c1ccc(F)c(Cn2c(C(=O)NS(=O)(=O)C3CC3)c(-c3ccc[nH]c3=O)c3c4occc4c(F)cc32)c1` [Compound 225], the IC50 in experiment [1] (setting [3]) was under 25 nM. For the same compound, the EC50 in experiment [2] was 500 to 1500 nM.

Regarding `Nc1ccccc1S(=O)(=O)NC(=O)c1c(-c2ccc[nH]c2=O)c2c3occc3c(F)cc2n1Cc1cc2ccccc2nc1Cl` [Compound 223], the IC50 in experiment [1] (setting [3]) is under 25 nM. Also, in experiment [2], the EC50 is under 500 nM.

With `CS(=O)(=O)NC(=O)c1c(-c2ccc[nH]c2=O)c2c3occc3c(F)cc2n1Cc1cc2ccccc2nc1Cl` [Compound 194], the IC50 in experiment [1] (setting [3]) is under 25 nM. Further, the EC50 in experiment [2] is under 500 nM.

For the compound `CCc1coc2c1ccc1c2c(-c2ccc[nH]c2=O)c(C(=O)NS(C)(=O)=O)n1Cc1ccccc1F` [Compound 70], the 50% inhibitory concentration (IC50) in experiment [1] (setting [3]) was over 100 nM. In experiment [2], the EC50 was over 1500 nM.

For `CS(=O)(=O)NC(=O)c1c(-c2ccc[nH]c2=O)c2c3c(ccc2n1Cc1cc(F)ccc1F)CCC3` [Compound 12], the IC50 in experiment [1] (setting [3]) is under 25 nM. Further, in experiment [2], the EC50 was in the range of 500 to 1500 nM.

As to `O=C(O)c1c(-c2ccc[nH]c2=O)c2c3occ(Cl)c3c(F)cc2n1Cc1cc2ccccc2nc1Cl` [Compound 159], the IC50 in experiment [1] (setting [3]) is under 25 nM. Further, in experiment [2], the EC50 was under 500 nM.

Regarding `CC(C)n1ncc2cc(Cn3c(C(=O)O)c(-c4ccc[nH]c4=O)c4c5occc5c(F)cc43)c(Cl)nc21` [Compound 156], in experiment [1] (setting [3]), the half-inhibitory concentration (IC50) was under 25 nM. The EC50 in experiment [2] was 500 to 1500 nM.

Take `CS(=O)(=O)NC(=O)c1c(-c2ccc[nH]c2=O)c2c3ncsc3ccc2n1Cc1ccccc1F` [Compound 50]: in experiment [1] (setting [3]), the IC50 was under 25 nM. In experiment [2], the EC50 was under 500 nM.

With `CS(=O)(=O)NC(=O)c1c(-c2ccc[nH]c2=O)c2c3ccoc3ccc2n1Cc1ccc(F)cc1F` [Compound 9], the IC50 in experiment [1] (setting [3]) was under 25 nM. Also, the EC50 in experiment [2] was over 1500 nM.

Consider `COc1cc(Cn2c(C(=O)OCOC(=O)C(C)(C)C)c(-c3cccn(COC(=O)C(C)(C)C)c3=O)c3c4occc4c(F)cc32)c(F)cn1` [Compound 226], for which the IC50 in experiment [1] (setting [3]) is over 100 nM. Further, in experiment [2], the EC50 is under 500 nM.

For the compound `CSc1ccc2cc(Cn3c(C(=O)O)c(-c4ccc[nH]c4=O)c4c5occc5c(F)cc43)c(Cl)nc2c1` [Compound 168], the IC50 in experiment [1] (setting [3]) was under 25 nM. Further, the EC50 in experiment [2] was under 500 nM.

For the compound `Cc1cc2ccc3c(c(-c4ccc[nH]c4=O)c(C(=O)O)n3Cc3ccccc3F)c2o1` [Compound 76], in experiment [1] (setting [3]), the IC50 lay within 25 to 100 nM. Besides, in experiment [2], the EC50 is over 1500 nM.

Turning to `Cc1nn(C)c2nc(Cl)c(Cn3c(C(=O)O)c(-c4ccc[nH]c4=O)c4c5occc5c(F)cc43)cc12` [Compound 143], the IC50 in experiment [1] (setting [3]) is under 25 nM. Also, the EC50 in experiment [2] is under 500 nM.

As to `CS(=O)(=O)NC(=O)c1c(-c2ccc[nH]c2=O)c2c3occc3c(F)cc2n1Cc1ccc2onc(N)c2c1` [Compound 170], in experiment [1] (setting [3]), the IC50 was under 25 nM. Also, the EC50 in experiment [2] is under 500 nM.

On to `O=C(NS(=O)(=O)C1CC1)c1c(-c2ccc[nH]c2=O)c2c3c(ccc2n1Cc1cc(F)ccc1F)CCO3` [Compound 164], for which the half-maximal inhibitory concentration (IC50) in experiment [1] (setting [3]) was under 25 nM. In addition, the EC50 in experiment [2] was under 500 nM.

As to `O=C(O)c1c(-c2ccc[nH]c2=O)c2c3occ(Cl)c3ccc2n1Cc1cc(F)ccc1F` [Compound 46], in experiment [1] (setting [3]), the IC50 was under 25 nM. Also, the EC50 in experiment [2] was under 500 nM.

On to `CCCS(=O)(=O)NC(=O)c1c(-c2ccc[nH]c2=O)c2c3occc3c(F)cc2n1Cc1cc2ccccc2nc1Cl` [Compound 213], for which, in experiment [1] (setting [3]), the IC50 is under 25 nM. Further, the EC50 in experiment [2] was under 500 nM.

Take `O=C(O)c1c(-c2cccc(O)c2F)c2c3occc3c(F)cc2n1Cc1ccccc1F` [Compound 88]: the IC50 in experiment [1] (setting [3]) lay in the range of 25 to 100 nM. In experiment [2], the EC50 lay in the range of 500 to 1500 nM.
